pEC50: −log10 of the molar value.
The compounds below were run against T1, GR LBD (ligand binding domain) (Homo sapiens, UniProt P04150) (assay: GR Reporter Assay (pBind assay, pG5luc luciferase reporter, agonist mode)). Conditions: HEK293 cells transiently transfected with pG5luc and GR LBD.
T1 construct: expressed in transfected cells; host or cells: HEK293
T1 sequence (P04150 524-758 limits assumed): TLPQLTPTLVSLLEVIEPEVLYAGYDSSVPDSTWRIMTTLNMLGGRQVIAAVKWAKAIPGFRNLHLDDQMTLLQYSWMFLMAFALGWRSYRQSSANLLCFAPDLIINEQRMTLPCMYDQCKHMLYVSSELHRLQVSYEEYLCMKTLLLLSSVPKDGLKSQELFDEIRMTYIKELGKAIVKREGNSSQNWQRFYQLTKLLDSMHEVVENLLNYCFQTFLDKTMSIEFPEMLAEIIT
Assay type: cell-based
Procedure: The assay is a pBind assay following the general principle outlined below. 2×10^4 HEK293 cells/96-well are transiently transfected with pG5luc and GR LBD 1:1 at 50 ng/well. GR LBD (ligand binding domain) is a […] fusion protein (used to yeast GAL4) and upon binding to the test article will bind the luciferase reporter and activate transcription of luciferase. Upon addition of a substrate, the luciferase activity can be measured and corresponds to the activity of the test article. The assay is performed in agonist mode.

| SMILES | pEC50 |
| --- | --- |
| C[C@@H]1C[C@H]2[C@@H]3C[C@H](F)C4=CC(=O)C=C[C@]4(C)[C@@]3(F)[C@@H](O)C[C@]2(C)[C@@]1(OC(=O)c1cccc(N)c1)C(=O)N1CCOCC1 [Compound 15] | < 7.52 |
| C[C@@H]1C[C@H]2[C@@H]3C[C@H](F)C4=CC(=O)C=C[C@]4(C)[C@@]3(F)[C@@H](O)C[C@]2(C)[C@@]1(OC(=O)c1cccc(N)c1)C(=O)N(C)C [Compound 8] | > 8.30 |
| C[C@@H]1C[C@H]2[C@@H]3CCC4=CC(=O)C=C[C@]4(C)[C@@]3(F)[C@@H](O)C[C@]2(C)[C@@]1(OC(=O)c1cccc(N)c1)C(=O)N(C)C [Compound 12] | > 8.30 |
| CNC(=O)[C@@]1(OC(=O)c2ccc(N)cc2)[C@H](C)C[C@H]2[C@@H]3C[C@H](F)C4=CC(=O)C=C[C@]4(C)[C@@]3(F)[C@@H](O)C[C@@]21C [Compound 11] | < 7.52 |
| C[C@@H]1C[C@H]2[C@@H]3C[C@H](F)C4=CC(=O)C=C[C@]4(C)[C@@]3(F)[C@@H](O)C[C@]2(C)[C@@]1(OC(=O)c1ccco1)C(=O)NCCOc1ccc(N)cc1 [Compound 7] | > 8.30 |
| C[C@@H]1C[C@H]2[C@@H]3C[C@H](F)C4=CC(=O)C=C[C@]4(C)[C@@]3(F)[C@@H](O)C[C@]2(C)[C@@]1(OC(=O)c1ccc(N)cc1)C(=O)N(C)C [Compound 9] | > 8.30 |
| C[C@]12C=CC(=O)C=C1CC[C@@H]1[C@@H]2[C@@H](O)C[C@@]2(C)[C@H]1C[C@H]1O[C@@H](c3ccc(Cc4cccc(N)c4)cc3)O[C@]12C(=O)CF [Compound 25] | > 8.30 |
| C[C@@H]1C[C@H]2[C@@H]3C[C@H](F)C4=CC(=O)C=C[C@]4(C)[C@@]3(F)[C@@H](O)C[C@]2(C)[C@@]1(OC(=O)c1cccc(N)c1)C(=O)N(C)CCO [Compound 18] | < 7.52 |
| C[C@@H]1C[C@H]2[C@@H]3C[C@H](F)C4=CC(=O)C=C[C@]4(C)[C@@]3(F)[C@@H](O)C[C@]2(C)[C@@]1(OC(=O)c1cccc(N)c1)C(=O)N(C)CC(O)CO (stereo partly drawn) [Compound 20, (6S,8S,9R,10S,11S,13S,14S,16R,17R)-17-((2,3-dihydroxypropyl)(methyl)carbamoyl)-6,9-difluoro-11-hydroxy-10,13,16-trimethyl-3-oxo-6,7,8,9,10,11,12,13,14,15,16,17-dodecahydro-3H-cyclopenta[a]phenanthren-17-yl 3-aminobenzoate] | < 7.52 |
| C[C@]12C=CC(=O)C=C1CC[C@H]1[C@@H]3C[C@H]4O[C@@H](c5cccc(N)c5)O[C@@]4(C(=O)CF)[C@@]3(C)C[C@H](O)[C@@]12F [Compound 3] | > 8.30 |
| CNC(=O)[C@@]1(OC(=O)c2cccc(N)c2)[C@H](C)C[C@H]2[C@@H]3C[C@H](F)C4=CC(=O)C=C[C@]4(C)[C@@]3(F)[C@@H](O)C[C@@]21C [Compound 10] | < 7.52 |
| C[C@@H]1C[C@H]2[C@@H]3C[C@H](F)C4=CC(=O)C=C[C@]4(C)[C@@]3(F)[C@@H](O)C[C@]2(C)[C@@]1(OC(=O)c1cccc(N)c1)C(=O)N1CC(CO)C1 [Compound 17] | < 7.52 |
| C[C@]12C=CC(=O)C=C1CC[C@H]1[C@@H]3C[C@H]4O[C@H](c5cccc(N)c5)O[C@@]4(C(=O)CCl)[C@@]3(C)C[C@H](O)[C@@]12F [Compound 1] | > 8.30 |
| CN(C)C(=O)[C@@]12O[C@H](c3cccc(Cc4cccc(N)c4)c3)O[C@@H]1C[C@H]1[C@@H]3CCC4=CC(=O)C=C[C@]4(C)[C@H]3[C@@H](O)C[C@@]12C [Compound 23] | > 8.30 |
| C[C@@H]1C[C@H]2[C@@H]3C[C@H](F)C4=CC(=O)C=C[C@]4(C)[C@@]3(F)[C@@H](O)C[C@]2(C)[C@@]1(OC(=O)c1cccc(N)c1)C(=O)NCCO [Compound 19] | < 7.52 |
| C[C@]12C=CC(=O)C=C1CC[C@H]1[C@@H]3C[C@H]4O[C@@H](c5cccc(N)c5)O[C@@]4(C(=O)CCl)[C@@]3(C)C[C@H](O)[C@@]12F [Compound 2] | > 8.30 |
| C[C@@H]1C[C@H]2[C@@H]3C[C@H](F)C4=CC(=O)C=C[C@]4(C)[C@@]3(F)[C@@H](O)C[C@]2(C)[C@@]1(OC(=O)c1cccc(N)c1)C(=O)N1CCCC1 [Compound 14] | < 7.52 |

— patent US20260041781A1, “NOVEL GLUCOCORTICOID RECEPTOR AGONISTS AND IMMUNOCONJUGATES THEREOF” (priority 2022, published 2026)
